According to BigSolDB 2.1:

CCOc1ccc2ccccc2c1C(=O)O
solubility (mole fraction)
Conditions | 278.15 K | 283.15 K | 288.15 K | 293.15 K | 298.15 K | 303.15 K | 308.15 K | 313.15 K | 318.15 K | 323.15 K
in ethanol | 0.0268 | 0.0325 | 0.0392 | 0.0469 | 0.0565 | 0.0688 | 0.0836 | 0.101 | 0.119 | 0.136
in methanol | 0.0304 | 0.037 | 0.0443 | 0.0552 | 0.0671 | 0.0821 | 0.0951 | 0.114 | 0.134 | 0.151
in n-propanol | 0.0212 | 0.0236 | 0.0283 | 0.0345 | 0.0424 | 0.0511 | 0.0632 | 0.0779 | 0.092 | 0.114
